Test results as given in patent EP0467099A2, “Substituted acrylophenons” (BAYER AG, priority 1990, dated 1992).

Experiments:
Testpflanzen [1] = experiment: Post-emergence test (herbicidal damage rating); format: in vivo; conditions: plants 5 - 15 cm sprayed, rated after three weeks, result in words only; for Wirksamkeit (Schädigungsgrad der Pflanzen): compared with reference 2-[2-(4,6-Dimethoxy)-pyrimidinylthio]-benzoesäuremethylester (EP 223406/Bsp. 11); for Nutzpflanzenselektivität: crop selectivity compared with reference 2-[2-(4,6-Dimethoxy)-pyrimidinylthio]-benzoesäuremethylester (EP 223406/Bsp. 11)
Text: Lösungsmittel: 5 Gewichtsteile Aceton
Emulgator: 1 Gewichtsteil Alkylarylpolyglykolether
(§1) Zur Herstellung einer zweckmäßigen Wirkstoffzubereitung vermischt man 1 Gewichtsteil Wirkstoff mit der angegebenen Menge Lösungsmittel, gibt die angegebene Menge Emulgator zu und verdünnt das Konzentrat mit Wasser auf die gewünschte Konzentration.
Mit der Wirkstoffzubereitung spritzt man Testpflanzen, welche eine Höhe von 5 - 15 cm haben, so, daß die jeweils gewünschten Wirkstoffmengen pro Flächeneinheit ausgebracht werden. Die Konzentration der Spritzbrühe wird so gewählt, daß in 1000 I Wasser/ha die jeweils gewünschten Wirkstoffmengen ausgebracht werden. Nach drei Wochen wird der Schädigungsgrad der Pflanzen bonitiert in % Schädigung im Vergleich zur Entwicklung der unbehandelten Kontrolle.
Es bedeuten: • 0 % = keine Wirkung (wie unbehandelte Kontrolle) • 100 % = totale Vernichtung

Testpflanzen [2] = experiment: Pre-emergence test (herbicidal damage rating); format: in vivo; conditions: seeds watered 24 h after sowing, rated after three weeks, compared with reference 2-[2-(4,6-Dimethoxy)-pyrimidinylthio]-benzoesäuremethylester (EP 223406/Bsp. 11), result in words only
Text: Lösungsmittel: 5 Gewichtsteile Aceton Emulgator: 1 Gewichtsteil Alkylarylpolyglykolether
as §1
Samen der Testpflanzen werden in normalen Boden ausgesät und nach 24 Stunden mit der Wirkstoffzubereitung begossen. Dabei hält man die Wassermenge pro Flächeneinheit zweckmäßigerweise konstant. Die Wirkstoffkonzentration in der Zubereitung spielt keine Rolle, entscheidend ist nur die Aufwandmenge des Wirkstoffs pro Flächeneinheit. Nach drei Wochen wird der Schädigungsgrad der Pflanzen bonitiert in % Schädigung im Vergleich zur Entwicklung der unbehandelten Kontrolle. Es bedeuten: • 0 % = keine Wirkung (wie unbehandelte Kontrolle) • 100 % = totale Vernichtung

Row | SMILES | Wirksamkeit (Schädigungsgrad der Pflanzen) (Testpflanzen [1]) | Nutzpflanzenselektivität (Testpflanzen [1]) | Wirksamkeit (Schädigungsgrad der Pflanzen) (Testpflanzen [2])
1 | COc1cc(OC)nc(Oc2ccccc2C(=O)C(C)=CN(C)C)n1 [Beispiel 2, 3-Dimethylamino-2-methyl-1-{2-[2-(4,6-dimethoxy)-pyrimidinyloxy]-phenyl}-prop-2-en-1-on] | deutliche Überlegenheit | deutliche Überlegenheit | –
2 | COc1cc(OC)nc(Oc2ccccc2C(=O)C=CN2CCCCCC2)n1 [Beispiel 1, 3-(1-Hexahydroazepino)-1-{2-[2-(4,6-dimethoxy)-pyrimidinyloxy]-phenyl}-prop-2-en-1-on] | deutliche Überlegenheit | deutliche Überlegenheit | deutliche Überlegenheit
3 | COc1cc(OC)nc(Oc2ccccc2C(=O)C=P(c2ccccc2)(c2ccccc2)c2ccccc2)n1 [Beispiel 3, {2-[2-(4,6-Dimethoxy)-pyrimidinyloxy]-benzoyl}-methylentriphenylphosphoran] | deutliche Überlegenheit | deutliche Überlegenheit | –
